According to patent publication US20030144336A1, “Method of selecting nonsedating H1-antagonists” (priority 2001, published 2003):
Where two headings read alike, the source gives them in different places. Blank lines part the entries; values can stand above or below the compound they belong to.

Tests used:
MDR1 (P-gp) [1] = target: T1, MDR1 (P-gp) (Homo sapiens, UniProt P08183)
in vivo = details: male, mouse, iv, 5 mg/kg
MDR1 (P-gp) [2] = target: T1, MDR1 (P-gp); assay: in vitro; details: MDCK-MDR1
P-gp (mdr1a/1b) [3] = target: T2, P-gp (mdr1a/1b) (Mus musculus, UniProt P21447); assay: in vivo; details: male, iv, 5 mg/kg
P-gp (mdr1a/1b) [4] = target: T2, P-gp (mdr1a/1b); details: male, FVB and mdr1a/1b KO, in vivo
P-gp (mdr1a/1b) [5] = target: T2, P-gp (mdr1a/1b); assay: Blood-brain distribution of H1-antagonists in WT mice and mdr1a/1b KO mice; details: WT and KO mice, post i.v. dose
[6] = as above; details: male, FVB, mouse, brain, iv, 5 mg/kg
P-gp = details: literature reports; cited from earlier work

T2 sequence (P21447 whole entry): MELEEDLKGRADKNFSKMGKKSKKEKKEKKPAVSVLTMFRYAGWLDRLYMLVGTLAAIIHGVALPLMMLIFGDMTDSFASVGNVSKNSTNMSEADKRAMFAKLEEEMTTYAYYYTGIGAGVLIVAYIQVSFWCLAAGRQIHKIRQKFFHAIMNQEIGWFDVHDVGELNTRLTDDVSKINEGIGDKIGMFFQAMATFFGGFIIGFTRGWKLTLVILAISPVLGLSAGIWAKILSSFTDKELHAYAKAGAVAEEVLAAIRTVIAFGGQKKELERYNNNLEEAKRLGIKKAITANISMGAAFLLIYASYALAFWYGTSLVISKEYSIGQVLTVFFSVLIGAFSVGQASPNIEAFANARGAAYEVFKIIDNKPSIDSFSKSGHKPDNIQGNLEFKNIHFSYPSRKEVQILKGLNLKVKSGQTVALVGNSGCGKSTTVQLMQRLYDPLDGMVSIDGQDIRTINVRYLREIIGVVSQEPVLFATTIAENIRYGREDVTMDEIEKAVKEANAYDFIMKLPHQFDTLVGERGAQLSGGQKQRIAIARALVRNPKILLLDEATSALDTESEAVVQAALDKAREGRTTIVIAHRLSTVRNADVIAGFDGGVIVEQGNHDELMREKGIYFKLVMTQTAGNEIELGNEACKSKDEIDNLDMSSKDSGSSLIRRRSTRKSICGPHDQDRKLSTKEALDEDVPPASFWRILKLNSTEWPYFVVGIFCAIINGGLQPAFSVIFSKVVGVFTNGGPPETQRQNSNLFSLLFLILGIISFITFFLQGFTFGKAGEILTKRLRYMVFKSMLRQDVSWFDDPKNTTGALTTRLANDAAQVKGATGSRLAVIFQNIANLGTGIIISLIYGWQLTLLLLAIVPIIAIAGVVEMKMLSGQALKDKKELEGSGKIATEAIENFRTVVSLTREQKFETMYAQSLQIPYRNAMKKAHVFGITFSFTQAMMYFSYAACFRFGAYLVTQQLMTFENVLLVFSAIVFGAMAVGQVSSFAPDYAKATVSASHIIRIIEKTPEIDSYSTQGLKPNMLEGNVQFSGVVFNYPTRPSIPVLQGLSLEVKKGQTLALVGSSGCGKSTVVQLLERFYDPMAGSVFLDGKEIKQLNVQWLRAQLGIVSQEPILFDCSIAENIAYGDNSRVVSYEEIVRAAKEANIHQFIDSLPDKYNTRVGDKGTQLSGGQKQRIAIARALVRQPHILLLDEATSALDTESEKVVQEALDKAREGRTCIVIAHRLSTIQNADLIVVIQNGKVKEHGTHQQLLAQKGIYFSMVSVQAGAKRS
T1 sequence (P08183 whole entry): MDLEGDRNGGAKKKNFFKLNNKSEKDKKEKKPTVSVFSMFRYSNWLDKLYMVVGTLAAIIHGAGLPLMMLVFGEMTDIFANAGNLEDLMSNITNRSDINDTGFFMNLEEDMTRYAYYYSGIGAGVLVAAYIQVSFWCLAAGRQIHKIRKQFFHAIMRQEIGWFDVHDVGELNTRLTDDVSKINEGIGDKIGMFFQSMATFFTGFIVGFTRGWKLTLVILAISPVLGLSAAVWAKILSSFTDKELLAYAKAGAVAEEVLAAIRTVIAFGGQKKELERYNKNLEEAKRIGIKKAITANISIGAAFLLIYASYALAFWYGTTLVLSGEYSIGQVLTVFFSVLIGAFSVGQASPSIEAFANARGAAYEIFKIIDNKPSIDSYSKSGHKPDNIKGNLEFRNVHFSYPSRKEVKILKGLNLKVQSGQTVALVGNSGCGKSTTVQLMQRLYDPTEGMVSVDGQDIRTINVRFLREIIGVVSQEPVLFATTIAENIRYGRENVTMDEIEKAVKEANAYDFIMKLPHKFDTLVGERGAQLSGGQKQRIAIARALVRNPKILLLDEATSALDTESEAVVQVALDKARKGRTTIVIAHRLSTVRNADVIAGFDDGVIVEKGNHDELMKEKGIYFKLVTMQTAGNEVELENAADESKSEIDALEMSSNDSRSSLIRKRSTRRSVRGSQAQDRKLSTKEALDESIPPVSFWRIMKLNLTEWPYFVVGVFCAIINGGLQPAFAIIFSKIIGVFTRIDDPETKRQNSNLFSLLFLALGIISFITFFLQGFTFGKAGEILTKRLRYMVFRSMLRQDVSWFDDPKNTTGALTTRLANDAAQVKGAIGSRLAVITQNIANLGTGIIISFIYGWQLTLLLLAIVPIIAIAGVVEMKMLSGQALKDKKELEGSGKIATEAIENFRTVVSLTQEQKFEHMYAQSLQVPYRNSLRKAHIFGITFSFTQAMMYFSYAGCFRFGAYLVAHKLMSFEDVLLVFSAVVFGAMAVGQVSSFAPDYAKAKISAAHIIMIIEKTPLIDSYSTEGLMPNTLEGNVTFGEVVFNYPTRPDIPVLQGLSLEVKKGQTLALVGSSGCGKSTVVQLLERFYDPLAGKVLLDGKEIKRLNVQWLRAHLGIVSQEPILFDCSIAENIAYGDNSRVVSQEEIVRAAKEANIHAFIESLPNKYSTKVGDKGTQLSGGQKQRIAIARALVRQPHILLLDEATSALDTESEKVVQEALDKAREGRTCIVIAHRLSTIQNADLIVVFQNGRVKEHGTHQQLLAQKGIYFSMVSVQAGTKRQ

MDR1 Substrate? (MDR1 (P-gp) [1]; MDCK-MDR1): No | MDR1 Substrate? (MDR1 (P-gp) [1]; human, MDCK-MDR1, 5 h, 2 µM): not MDR1 substrates | Vd (in vivo; FVB and mdr1a/1b KO, in vivo): ~2 L/kg | clearance (in vivo; FVB and mdr1a/1b KO, in vivo): 119 to 134 mL/min/kg | Vd (in vivo; FVB, in vivo): 2 L/kg | clearance (in vivo; FVB, in vivo): 119 mL/min/kg | half-life (in vivo; FVB, in vivo): 0.3 h | Vd (in vivo; mdr1a/1b KO, in vivo): 2.3 L/kg | clearance (in vivo; mdr1a/1b KO, in vivo): 134 mL/min/kg | half-life (in vivo; mdr1a/1b KO, in vivo): 0.5 h | Papp A→B at 5 hr, 2 μM (MDR1 (P-gp) [2]; dog): 25.9 ×10⁻⁶ cm/s | Papp B→A at 5 hr, 2 μM (MDR1 (P-gp) [2]; dog): 24.5 ×10⁻⁶ cm/s | efflux ratio at 5 hr, 2 μM (MDR1 (P-gp) [2]; human): 0.9 | Kp (P-gp (mdr1a/1b) [3]; FVB and mdr1a/1b KO): 0.6 | Kp (P-gp (mdr1a/1b) [3]; FVB): 6.2 | Kp (P-gp (mdr1a/1b) [3]; mdr1a/1b KO): 3.5 | AUC ratio of brain tissue to plasma (WT vs. KO comparison) (P-gp (mdr1a/1b) [4]): approximately 1 | time of peak brain tissue concentration (P-gp (mdr1a/1b) [4]; iv): 2 min
SMILES: Cc1ccc(/C(=C\CN2CCCC2)c2ccccn2)cc1 [Triprolidine]

Vd (in vivo; FVB and mdr1a/1b KO, plasma): 2.4 to 3.7 L/kg | clearance (in vivo; FVB and mdr1a/1b KO, plasma): 70 to 80 mL/min/kg | Vd (in vivo; FVB, plasma): 3.7 L/kg | clearance (in vivo; FVB, plasma): 80 mL/min/kg | half-life (in vivo; FVB, plasma): 1.7 h | Vd (in vivo; mdr1a/1b KO, plasma): 2.4 L/kg | clearance (in vivo; mdr1a/1b KO, plasma): 70 mL/min/kg | half-life (in vivo; mdr1a/1b KO, plasma): 2.2 h | time of peak brain tissue concentration (P-gp (mdr1a/1b) [5]): 2 min | concentration at 2 min [6]: ~8000 ng/mL | Kp (P-gp (mdr1a/1b) [3]; FVB and mdr1a/1b KO): 1.2 | Kp (P-gp (mdr1a/1b) [3]; FVB): 3.8 | Kp (P-gp (mdr1a/1b) [3]; mdr1a/1b KO): 4.8 | AUC ratio of brain tissue to plasma (WT vs. KO comparison) (P-gp (mdr1a/1b) [4]): approximately 1
SMILES: OCCOCCN1CCN(C(c2ccccc2)c2ccc(Cl)cc2)CC1 (stereo not drawn) [Hydroxyzine]

SMILES: CC(C)(C)c1ccc(C(O)CCCN2CCC(C(O)(c3ccccc3)c3ccccc3)CC2)cc1 (stereo not drawn) [terfenadine]
P-gp substrate or inhibitor status (P-gp): an inhibitor of and a substrate for P-gp in vitro
